Data on 11 compounds can be found in publication PMC6385854, “Structural insights reveal a recognition feature for tailoring hydrocarbon stapled-peptides against the eukaryotic translation initiation factor 4E protein” (Chemical Science, 2019).

Read-outs that look alike come from different tables or passages of the source. Numbered stars: 1 amine (or outer) side, 2 acyl side, 3 side chain; on linkers, the order of the positions; unused ones are H or OH. Bridge positions count the residues as written; N and C are the ends. Square brackets hold non-standard residues; d marks the D form. Peptide text beside a SMILES is read from it. ξ: configuration not given here. ξαMeNle(6-ylidene) = CC(CCCC=[*:3])(N[*:1])C(=O)[*:2]; R5 = C=CCCC[C@@](C)(N)C(=O)O; S5 = C=CCCC[C@](C)(N)C(=O)O

The test has as its target T1, Human recombinant eIF4E protein (Homo sapiens, UniProt P06730).
T1 construct: V28-V217; made in house; host or cells: Escherichia coli BL21 (DE3)
As to the kind of experiment: Surface plasmon resonance binding of stapled-peptides to immobilized eIF4E. The conditions noted are these: SPR; for kon: eIF4E (His tag or w/o tag) amine-coupled on CM5 chip, saturated with m7GTP, peptides 3 μM to 1.372 nM, 60 s injection, 120 s dissociation. How it is done:
Human recombinant eIF4E protein with His tag (eIF4E-His) and without tag (eIF4E w/o tag) were separately immobilized on a CM5 sensor chip through amine coupling using the same protocol. Each flow cell of a CM5 sensor chip was first activated by a 7 min injection (10 μl min^–1) of freshly prepared 1 : 1 50 mM NHS : 200 mM EDC. Diluted eIF4E in NaAc (pH 5.0), with m^7GTP present in ≥2 : 1 ratio to saturate eIF4E, was injected over the sensor chip surface at a flow rate of 10 μl min^–1. The remaining active coupling sites were blocked with a 7 min injection of 1 M ethanolamine at 10 μl min^–1. The immobilization level is ∼2500 RU for eIF4E w/o tag and ∼5000 RU for eIF4E-His separately. Running buffer for immobilization was HBS-EP+ (10 mM HEPES, 150 mM NaCl, 3 mM EDTA, 0.05% surfactant P20).
Before measurement, the system was primed with assay running buffer HBS-EP+ (10 mM HEPES, 150 mM NaCl, 3 mM EDTA, 0.05% surfactant P20), with 1 mM DTT and 3% DMSO. Peptides were prepared by 3-fold dilution from high concentration to low concentration (3 μM to 1.372 nM). Peptides at increasing concentrations were injected over the chip surface for 60 s. The exposure was followed by a dissociation phase of 120 s. The flow rate was 30 μl min^–1. Surface regeneration was done using 2 M NaCl 30 s at 30 μl min^–1. Each reaction cycle ended with 50% DMSO extra wash. The solvent correction curve was setup by adding varying amounts of 100% DMSO to 1.03× running buffer to generate a range of DMSO solutions (2.000%, 2.286%, 2.571%, 2.857%, 3.143%, 3.429%, 3.714% and 4.000% respectively). After removing reference (blank buffer) signal and adding solvent correction, kinetics and/or steady-state parameters were calculated with Biacore T200 evaluation software ver. 3.0.
(In general: SPR reads the build-up and loss of mass on a sensor chip optically.)

Setting [1] is: Biacore T200, HBS-EP+ with 1 mM DTT, 3% DMSO, mean ± SEM from at-least two independent experiments, SEM, read-out: k on.
Where [2] appears, read: Biacore T200, eIF4E on CM5 chip, m7GTP, HBS-EP+ with 1 mM DTT, 3% DMSO, mean ± SEM from at-least two independent experiments, SEM, read-out: K D, binding affinity (kinetic KD) measured as a ratio of koff/kon.
The mark [3] stands for this setting: Biacore T200, eIF4E on CM5 chip, m7GTP, HBS-EP+ with 1 mM DTT, 3% DMSO, mean ± SEM from at-least two independent experiments, SEM, read-out: k off.
Setting [4] is: mean ± SEM from at-least two independent experiments.
Where [5] appears, read: mean ± SEM from at-least two independent experiments, SEM.
The mark [6] stands for this setting: Biacore T200, HBS-EP+ with 1 mM DTT, 3% DMSO, mean ± SEM from at-least two independent experiments, SEM.
Setting [7] is: Biacore T200, eIF4E on CM5 chip, m7GTP, HBS-EP+ with 1 mM DTT, 3% DMSO, mean ± SEM from at-least two independent experiments, SEM.
Where [8] appears, read: Biacore T200, eIF4E on CM5 chip, m7GTP, HBS-EP+ with 1 mM DTT, 3% DMSO, mean ± SEM from at-least two independent experiments, read-out: K D, binding affinity (kinetic KD) measured as a ratio of koff/kon.

T1 sequence (P06730 28-217): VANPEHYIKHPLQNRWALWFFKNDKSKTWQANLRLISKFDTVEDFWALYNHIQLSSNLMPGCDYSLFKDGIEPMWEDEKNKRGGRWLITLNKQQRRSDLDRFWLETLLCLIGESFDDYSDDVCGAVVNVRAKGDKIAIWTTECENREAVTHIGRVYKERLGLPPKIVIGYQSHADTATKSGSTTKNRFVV

Take `CC(=O)N[C@@H](CCCCN)C(=O)N[C@@H](CCCCN)C(=O)N[C@@H](CCCNC(=N)N)C(=O)N[C@@H](Cc1ccc(O)cc1)C(=O)N[C@@H](CO)C(=O)N[C@@H](CCCNC(=N)N)C(=O)N[C@]1(C)CCCC=CCCC[C@](C)(C(=O)N[C@@H](Cc2ccccc2)C(N)=O)NC(=O)[C@H](CC(C)C)NC(=O)[C@H](CC(C)C)NC(=O)[C@H](CCC(N)=O)NC1=O` [sTIP-05] (Ac-KKRYSR[R5]QLL[R5]F-NH2; staple 7-11): the kon under setting [1] came out at 1.5e+07 M⁻¹ s⁻¹. In addition, the Kd under setting [2] is 6.6 ± 0.7 nM. Moreover, the koff under setting [3] worked out at 0.094 ± 8e-05 s⁻¹. Moreover, the “RT, Residence Time measured as 1/koff” value under setting [4] was determined as 10 s and the “RT, Residence Time measured as 1/koff” value under setting [5] is 10.8 ± 0.9 s.
With `CC(=O)N[C@@H](CCCCN)C(=O)N[C@@H](CCCCN)C(=O)N[C@@H](CCCNC(=N)N)C(=O)N[C@@H](Cc1ccc(O)cc1)C(=O)N[C@@H](CO)C(=O)N[C@@H](CCCNC(=N)N)C(=O)N[C@@]1(C)CCCC=CCCC[C@@](C)(C(=O)N[C@@H](Cc2ccccc2)C(=O)N[C@@H](Cc2c[nH]c3ccccc23)C(N)=O)NC(=O)[C@H](CC(C)C)NC(=O)[C@H](CC(C)C)NC(=O)[C@H](CCC(N)=O)NC1=O` [sTIP-07] (Ac-KKRYSR[S5]QLL[S5]FW-NH2; staple 7-11), under setting [1], the kon came out at 650000 ± 3e+09 M⁻¹ s⁻¹. Moreover, the Kd under setting [2] was 42.5 ± 0.5 nM. The koff under setting [3] stood at 0.028 ± 1e-05 s⁻¹. Also, the “RT, Residence Time measured as 1/koff” value under setting [5] is on record as 36.3 ± 1.0 s.
With `CC(=O)N[C@@H](CCCCN)C(=O)N[C@@H](CCCCN)C(=O)N[C@@H](CCCNC(=N)N)C(=O)N[C@@H](Cc1ccc(O)cc1)C(=O)N[C@@H](CO)C(=O)N[C@@H](CCCNC(=N)N)C(=O)N[C@@]1(C)CCCC=CCCC[C@@](C)(C(=O)N[C@@H](Cc2ccccc2)C(=O)N[C@@H](CCCNC(=N)N)C(=O)N[C@@H](CCCNC(=N)N)C(=O)N[C@@H](CCCNC(=N)N)C(N)=O)NC(=O)[C@H](CC(C)C)NC(=O)[C@H](CC(C)C)NC(=O)[C@H](CCC(N)=O)NC1=O` [sTIP-09] (Ac-KKRYSR[S5]QLL[S5]FRRR-NH2; staple 7-11), the kon under setting [1] turned out to be 2.2e+06 ± 3e+11 M⁻¹ s⁻¹. Also, the Kd under setting [2] was found to be 7.8 ± 1.9 nM. Under setting [3], the koff was found to be 0.016 ± 3e-05 s⁻¹. Also, the “RT, Residence Time measured as 1/koff” value by setting is: under setting [4], 68 s; under setting [5], 68.8 ± 13.8 s.
In the case of `CC(=O)N[C@@H](CCCCN)C(=O)N[C@@H](CCCCN)C(=O)N[C@@H](CCCNC(=N)N)C(=O)N[C@@H](Cc1ccc(O)cc1)C(=O)N[C@@H](CO)C(=O)N[C@@H](CCCNC(=N)N)C(=O)N[C@@H](CCC(=O)O)C(=O)N[C@@H](CCC(N)=O)C(=O)N[C@@H](CC(C)C)C(=O)N[C@@H](CC(C)C)C(=O)N[C@@]1(C)CCCC=CCCC[C@@](C)(C(N)=O)NC(=O)[C@H](CCCNC(=N)N)NC(=O)[C@H](CCC(N)=O)NC(=O)[C@H](Cc2ccccc2)NC1=O` [sTIP-10] (Ac-KKRYSREQLL[S5]FQR[S5]-NH2; staple 11-15), under setting [1], the kon stood at 6.6e+06 ± 1e+11 M⁻¹ s⁻¹. In addition, under setting [2], the Kd worked out at 4.3 ± 0.4 nM. For the same compound, the koff under setting [3] is 0.026 ± 5e-05 s⁻¹. Further, the “RT, Residence Time measured as 1/koff” value under setting [4] turned out to be 39 s and the “RT, Residence Time measured as 1/koff” value under setting [5] is listed as 39.7 ± 3.1 s.
Take `CC(=O)N[C@@H](CCCNC(=N)N)C(=O)N[C@@H](Cc1ccc(O)cc1)C(=O)N[C@@H](CO)C(=O)N[C@@H](CCCNC(=N)N)C(=O)NC1(C)CCCC=CCCCC(C)(C(=O)N[C@@H](Cc2ccccc2)C(N)=O)NC(=O)[C@H](CC(C)C)NC(=O)[C@H](CC(C)C)NC(=O)[C@H](CCC(N)=O)NC1=O` (stereo partly drawn) [sTIP-12] (Ac-RYSR[ξαMeNle(6-ylidene)]QLL[ξαMeNle(6-ylidene)]F-NH2; staple 5-9): the kon under setting [1] was found to be 420000 ± 1.9e+10 M⁻¹ s⁻¹. The Kd under setting [2] was found to be 397 ± 131 nM. In addition, the koff under setting [3] was 0.14 ± 0.002 s⁻¹. Under setting [5], the “RT, Residence Time measured as 1/koff” value amounted to 7.1 ± 1.0 s.
For the compound `CC(=O)N[C@@H](Cc1ccc(O)cc1)C(=O)N[C@@H](CO)C(=O)N[C@@H](CCCNC(=N)N)C(=O)NC1(C)CCCC=CCCCC(C)(C(=O)N[C@@H](Cc2ccccc2)C(N)=O)NC(=O)[C@H](CC(C)C)NC(=O)[C@H](CC(C)C)NC(=O)[C@H](CCC(N)=O)NC1=O` (stereo partly drawn) [sTIP-13] (Ac-YSR[ξαMeNle(6-ylidene)]QLL[ξαMeNle(6-ylidene)]F-NH2; staple 4-8), the Kd (Binding affinity estimated (micromolar range), range over two independent experiments) was 4000 to 36000 nM; the Kd (sensogram traces Fig. S2 E, F, experiment 1, read-out: Binding affinity estimated, first of two independent SPR experiments) is 4000 nM; the Kd (sensogram traces Fig. S2 E, F, experiment 2, read-out: Binding affinity estimated, second of two independent SPR experiments) was 36000 nM.
Regarding `CC(=O)N[C@@H](CCCNC(=N)N)C(=O)N[C@@H](Cc1ccc(O)cc1)C(=O)N[C@@H](CO)C(=O)N[C@@H](CCCNC(=N)N)C(=O)N[C@@]1(C)CCCC=CCCC[C@@](C)(C(=O)N[C@@H](CC(C)C)C(=O)N[C@@H](Cc2ccccc2)C(=O)N[C@@H](CCCNC(=N)N)C(N)=O)NC(=O)[C@H](CC(C)C)NC(=O)[C@H](CC(C)C)NC(=O)[C@H](CCC(N)=O)NC1=O` [sTIP-14] (Ac-RYSR[S5]QLL[S5]LFR-NH2; staple 5-9), the kon under setting [1] stood at 340000 ± 1.6e+10 M⁻¹ s⁻¹. Under setting [2], the Kd was 195 ± 49.7 nM. In addition, the koff under setting [3] came out at 0.058 ± 0.00014 s⁻¹. Further, the “RT, Residence Time measured as 1/koff” value under setting [5] is 18.3 ± 4.5 s. Where the note is “relative to sTIP-12”, the “Improvement in KD over sTIP-12” value is 2 fold and the “Reduction in rate of dissociation (koff) over sTIP-12” value is 2 fold.
Consider “Ac-KRYSR*QLL*F-NH2 (sidechain bridge or staple) [sTIP-11, sTIP-05 with K1 deleted]”, for which, under setting [6], the kon is reported as 2.3 ± 0.9 × 10^7 M^–1 s^–1. In addition, under setting [7], the “K D, binding affinity (kinetic KD) measured as a ratio of koff/kon” value (“K D, binding affinity … as a ratio of koff/kon” below) came out at 21.9 ± 3.8 nM and the koff is given as 4.6 ± 1.2 × 10^–1 s^–1. Besides, the “RT, Residence Time measured as 1/koff” value under setting [5] stood at 2.3 ± 0.6 s. For the same compound, for the setting “sequential deletion of the 1KKR3 sequence”, the “Binding to eIF4E in words (effect of N-terminal deletion from sTIP-05)” value is on record as “little effect on binding”.
“Ac-RIIYSR*QLL*L&-NH2 (sidechain bridge or staple) [sTIP-08, 13mer stapled-peptide, sTIP-06 extended with Lys(ButPhI)]”: the kon under setting [6] is recorded as 6.2 ± 0.2 × 10^5 M^–1 s^–1. In addition, under setting [7], the “K D, binding affinity … as a ratio of koff/kon” value amounted to 45.2 ± 0.6 nM and the koff was 2.8 ± 0.1 × 10^–2 s^–1. For the same compound, under setting [5], the “RT, Residence Time measured as 1/koff” value is recorded as 35.5 ± 1.3 s.
Regarding “Ac-RIIYSR*QLL*L-NH2 (sidechain bridge or staple) [sTIP-06]”, the kon under setting [6] is given as 2.7 ± 0.7 × 10^8 M^–1 s^–1. Besides, the “K D, binding affinity … as a ratio of koff/kon” value under setting [7] worked out at 0.8 ± 0.1 nM. Also, the koff under setting [7] is 2.2 ± 0.8 × 10^–1 s^–1. The Kd under setting [8] was determined as 0.8 nM. Also, the “RT, Residence Time measured as 1/koff” value is listed as 6 s under setting [4] and 6.0 ± 2.4 s under setting [5].
For “Ac-RYSREQLL*FQR*-NH2 (sidechain bridge or staple) [sTIP-15]”, the kon under setting [6] was 4.2 ± 2.3 × 10^6 M^–1 s^–1. For the same compound, under setting [7], the “K D, binding affinity … as a ratio of koff/kon” value worked out at 54.8 ± 6.4 nM and the koff is given as 2.4 ± 1.5 × 10^–1 s^–1. Under setting [8], the Kd was found to be 54 nM. Further, the “RT, Residence Time measured as 1/koff” value under setting [5] is 6.7 ± 4.1 s. Further, where the note is “relative to sTIP-12”, the “Improvement in KD over sTIP-12” value was 7 fold and the “Improvement in rate of association (kon) over sTIP-12” value is 10 fold.
